In US7427623B2, “4-Amino-2,3-disubstituted thieno[2,3-d]pyrimidines and pharmacetical compositions thereof” (SmithKline Beecham Corporation, priority 2001, dated 2008):

Tests used:
[1] = molecular target: T1, GST-TIE2 (intracellular domains of human TIE2) (Homo sapiens, UniProt Q02763); assay: TIE-2 Enzyme assay (TIE2-E), LANCE method; type: biochemical; conditions: GST-TIE2, 80 uM ATP, D1–15 peptide; read-out: TIE2-E pIC50 (converted)
T1 construct: made in house
Description: TIE-2 Enzyme assay (TIE2-E)
Preactivated GST-TIE2 was incubated for 30 mins at room temperature in 96 well plates with 1 uM D1–15 peptide, 80 uM ATP, 10 mM MgCl2, 0.1 mg/ml BSA and the test compound (diluted from a 10 mM stock in DMSO, final DMSO concentration was 2.4%) in 1 mM HEPES (pH 7.4). The reaction was stopped by the addition of EDTA (final concentration 45 mM). Streptavidin linked-APC (allophycocyanin, Molecular Probe) and Europium-labeled anti-phosphorylated tyrosine antibody (Wallac) were then added at the final concentration of 17 ug/well and 2.1 ug/well, respectively. The APC signal was measured using an ARVO multilabel counter. (Wallac Berthold Japan). The percent inhibition of activity was calculated relative to blank control wells. […] The IC50 values were converted to pIC50 values, i.e., −log IC50 in Molar concentration.

[2] = molecular target: T2, TIE2 intracellular domain/c-fms extracellular domain (TIE2/c-fms) chimeric protein (Homo sapiens, UniProt Q02763); assay: TIE-2 Autophosphorylation Assay (TIE2-C), ELISA; type: cell-based; conditions: TIE2/c-fms expressing mouse 3T3 cells, MCSF activation, read-out: TIE2-C pIC50 (converted)
T2 construct: TIE2 intracellular domain/c-fms extracellular domain (TIE2/c-fms) chimeric protein; expressed in transfected cells; host or cells: mouse 3T3 cells
T2 sequence (Q02763 770-1124 limits assumed, change not shown): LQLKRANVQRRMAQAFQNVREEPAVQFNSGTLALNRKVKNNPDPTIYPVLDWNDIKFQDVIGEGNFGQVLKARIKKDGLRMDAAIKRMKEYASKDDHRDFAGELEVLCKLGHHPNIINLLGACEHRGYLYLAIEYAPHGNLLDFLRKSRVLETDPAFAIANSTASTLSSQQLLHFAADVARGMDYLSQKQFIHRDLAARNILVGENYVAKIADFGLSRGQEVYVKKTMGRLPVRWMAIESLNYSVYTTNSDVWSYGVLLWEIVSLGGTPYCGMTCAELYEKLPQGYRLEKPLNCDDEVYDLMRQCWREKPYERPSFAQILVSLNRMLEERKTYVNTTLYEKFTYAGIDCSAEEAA
T2 sequence (P07333 20-517 partner limits assumed): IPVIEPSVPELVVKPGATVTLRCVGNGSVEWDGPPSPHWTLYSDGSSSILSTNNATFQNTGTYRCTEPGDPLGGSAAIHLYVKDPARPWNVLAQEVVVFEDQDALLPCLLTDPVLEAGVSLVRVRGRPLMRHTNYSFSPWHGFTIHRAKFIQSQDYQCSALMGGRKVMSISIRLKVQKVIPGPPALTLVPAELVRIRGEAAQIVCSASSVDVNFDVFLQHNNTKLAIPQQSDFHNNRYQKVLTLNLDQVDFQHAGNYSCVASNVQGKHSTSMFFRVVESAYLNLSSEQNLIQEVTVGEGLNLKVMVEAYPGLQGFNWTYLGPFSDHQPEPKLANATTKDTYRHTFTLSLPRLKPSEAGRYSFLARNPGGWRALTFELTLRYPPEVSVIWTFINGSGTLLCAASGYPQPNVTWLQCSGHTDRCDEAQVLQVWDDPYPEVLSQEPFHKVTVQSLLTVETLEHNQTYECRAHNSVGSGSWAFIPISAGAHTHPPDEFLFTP
T2 sequence (P09603 33-190 partner limits assumed): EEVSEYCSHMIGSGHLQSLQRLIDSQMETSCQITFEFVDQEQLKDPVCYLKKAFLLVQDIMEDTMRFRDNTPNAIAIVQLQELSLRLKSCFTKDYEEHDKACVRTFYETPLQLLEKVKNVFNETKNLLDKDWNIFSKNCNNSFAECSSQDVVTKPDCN
Description: TIE-2 Autophosphorylation Assay (TIE2-C)
The TIE-2 autophosphorylation assay used an ELISA method and a TIE2 intracellular domain/c-fms extracellular domain (TIE2/c-fms) chimeric protein expressing mouse 3T3 cells. This assay measured the autophosphorylation level of TIE2 protein expressed in cells. The cells were cultured in high glucose DMEM (Sigma) containing 10% serum at 37° C. in a humidified 10% CO2, 90% air incubator. The test compound (diluted from a 10 mM stock in DMSO, final DMSO concentration was 0.1%) was incubated with TIE2/c-fms expressing cells for 1 hr in serum free DMEM in 96 well plates followed by the activation of TIE2/c-fms receptor using c-fms ligand, MCSF (macrophage colony stimulating factor). […] The cell extracts were transferred into Rat anti-c-fms antibody coated 96 well plates and incubated for 12 hrs at 4 degrees. The extracts were removed by aspiration and the plate was incubated with biotinylated anti-phosphotyrosine antibody, PT66 (Sigma) and then with HRP (Horseradish Peroxidase)-labeled streptavidin (PIERCE). The optical density at 450 nm derived from HRP catalyzed TMB was measured with an ARVO multilabel counter. (Wallac Berthold Japan). The percent inhibition of activity was calculated relative to blank control wells. […] The IC50 values were converted to pIC50 values, i.e., −log IC50 in Molar concentration.

GST-VEGFR2 = molecular target: T3, GST-VEGFR2 (Homo sapiens, UniProt P35968); assay: VEGF-R2 Enzyme Assay (VEGF-E), LANCE method; type: biochemical; conditions: GST-VEGFR2, 75 uM ATP; read-out: VEGF-E pIC50 (converted)
T3 construct: GST-VEGFR2, baculovirus expressed recombinant constructs of the intracellular domains of human TIE2 tagged by GST; made in house
T3 sequence (P35968 786-1356 limits assumed): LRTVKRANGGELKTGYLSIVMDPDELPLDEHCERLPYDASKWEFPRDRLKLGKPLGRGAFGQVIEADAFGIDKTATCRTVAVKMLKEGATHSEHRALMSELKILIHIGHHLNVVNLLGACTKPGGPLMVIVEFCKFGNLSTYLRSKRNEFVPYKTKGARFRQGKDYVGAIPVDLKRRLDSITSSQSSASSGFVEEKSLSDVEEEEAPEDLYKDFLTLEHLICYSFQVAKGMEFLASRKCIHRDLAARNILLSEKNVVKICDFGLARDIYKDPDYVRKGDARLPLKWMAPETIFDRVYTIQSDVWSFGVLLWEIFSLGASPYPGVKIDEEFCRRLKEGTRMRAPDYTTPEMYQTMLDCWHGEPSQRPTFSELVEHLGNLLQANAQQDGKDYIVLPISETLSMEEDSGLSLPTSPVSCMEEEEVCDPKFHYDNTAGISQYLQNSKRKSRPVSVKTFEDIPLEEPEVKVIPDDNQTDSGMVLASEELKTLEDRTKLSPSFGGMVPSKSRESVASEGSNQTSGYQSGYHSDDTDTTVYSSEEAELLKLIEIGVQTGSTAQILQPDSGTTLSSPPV
Description: VEGF-R2 Enzyme Assay (VEGF-E)
The VEGF enzyme assay used the LANCE method (Wallac) and GST-VEGFR2, baculovirus expressed recombinant constructs of the intracellular domains of human […] tagged by GST. […] The reaction was stopped by the addition of EDTA (final concentration 50 mM). […] The APC signal was measured using an ARVO multilabel counter (Wallac Berthold, Japan). The percent inhibition of activity was calculated relative to blank control wells. […] The IC50 values were converted to pIC50 values, i.e., −log IC50 in Molar concentration.

[3] = test system: Human umbilical cord endothelial cells (HUVEC); assay: VEGF-Driven Cellular Proliferation Assay, BrdU Incorporation Assay (VEGF-C); type: cell-based; conditions: Homo sapiens, read-out: VEGF-C pIC50 (converted)
Description: VEGF-Driven Cellular Proliferation Assay. BrdU Incorporation Assay (VEGF-C)
Human umbilical cord endothelial cells (HUVEC, Clonetics, CC2519) were passaged in Type I collagen-coated 100-mm petridishes in EGM-MV medium (Clonetics, CC3125) at 37 C in a humidified 5% CO2, 95% air incubator. […] After incubation overnight at 37° C., the media were replaced with 100 ul of M199 serum-free medium containing compounds at various concentrations with 0.6% DMSO and gentamicin. The compounds were diluted in serum-free M199 medium from 10 mM stock solutions prepared in 100% DMS0. […] The cells were pulsed with bromodeoxyuridine (BrdU at 10 uM in serum-free M199) at 37° C. for an additional 24 h. […] The optical density at 450 nm was measured with a multilabel counter (ARVO SX, Wallac). The percent inhibition of cell growth was calculated relative to blank control wells. […] The IC50 values were converted to pIC50 values, i.e., −log IC50 in Molar concentration.

Recombinant GST-Tie2 = molecular target: T4, Recombinant GST-Tie2 (Homo sapiens, UniProt Q02763); assay: Tie2 Fluorescence Polarization Kinase Activity Assay (TIE2-FP); type: biochemical; conditions: 200 μM ATP, activated Tie2, fluorescence polarization
T4 construct: GST
T4 sequence (Q02763 23-1124): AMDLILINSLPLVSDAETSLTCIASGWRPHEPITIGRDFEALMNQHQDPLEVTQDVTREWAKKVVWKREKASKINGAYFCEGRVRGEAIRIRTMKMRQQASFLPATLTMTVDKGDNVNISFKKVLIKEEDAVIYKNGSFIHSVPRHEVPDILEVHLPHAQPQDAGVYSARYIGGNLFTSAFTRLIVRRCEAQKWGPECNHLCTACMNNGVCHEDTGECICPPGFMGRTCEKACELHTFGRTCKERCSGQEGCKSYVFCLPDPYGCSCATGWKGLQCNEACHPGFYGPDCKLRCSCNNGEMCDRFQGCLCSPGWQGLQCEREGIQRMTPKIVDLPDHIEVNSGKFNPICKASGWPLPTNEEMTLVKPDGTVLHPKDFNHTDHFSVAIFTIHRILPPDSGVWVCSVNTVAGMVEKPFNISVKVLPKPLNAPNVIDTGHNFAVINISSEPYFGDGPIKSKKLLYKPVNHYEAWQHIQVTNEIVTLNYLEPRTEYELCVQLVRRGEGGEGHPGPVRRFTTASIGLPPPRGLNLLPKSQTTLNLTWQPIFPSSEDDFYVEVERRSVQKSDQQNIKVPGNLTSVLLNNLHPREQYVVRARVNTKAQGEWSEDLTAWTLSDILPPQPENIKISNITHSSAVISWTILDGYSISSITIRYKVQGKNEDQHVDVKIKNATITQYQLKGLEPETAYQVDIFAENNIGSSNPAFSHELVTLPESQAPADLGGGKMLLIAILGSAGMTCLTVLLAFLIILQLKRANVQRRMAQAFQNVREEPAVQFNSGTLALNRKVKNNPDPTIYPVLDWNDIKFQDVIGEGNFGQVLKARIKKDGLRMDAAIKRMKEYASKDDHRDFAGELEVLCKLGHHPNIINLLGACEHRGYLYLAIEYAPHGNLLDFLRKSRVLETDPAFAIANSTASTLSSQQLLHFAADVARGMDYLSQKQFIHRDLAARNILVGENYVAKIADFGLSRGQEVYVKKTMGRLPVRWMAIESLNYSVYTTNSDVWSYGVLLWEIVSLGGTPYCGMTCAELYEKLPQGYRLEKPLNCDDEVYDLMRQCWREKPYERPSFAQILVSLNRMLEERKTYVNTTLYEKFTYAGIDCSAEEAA
Description: Tie2 Fluorescence Polarization Kinase Activity Assay: (TIE2-FP)
Activation of Recombinant Tie2 Activation:
Recombinant GST-Tie2 was activated by incubating the enzyme in 20 mM Tris-HCl, pH 7.5, 12 mM MgCl2, 100 mM NaCl, 20 μM sodium vanidate, 1 mM DTT and 300 μM ATP at room temperature for 2 hours. […] The activated enzyme was stored as aliquots at −80° C. in 20 mM Tris-HCl, pH 7.5 and 11 mM NaCl.
The final assay conditions were 50 mM HEPES, pH 7.5, 5% DMSO (when screening compounds), 200 μM ATP, 5 mM MgCl2, 1 mM DTT, 50 μM sodium vanidate, 1 nM activated enzyme, and 200 μM peptide. […] Panvera Anti-phosphotyrosine antibody (Cat#P2840) and PTK Green Tracer (Cat#P2842) were used to detect the phosphorylated peptide. […] IC50's were then determined from the % polarization using normal calculation methods.

T1 sequence (Q02763 762-1104): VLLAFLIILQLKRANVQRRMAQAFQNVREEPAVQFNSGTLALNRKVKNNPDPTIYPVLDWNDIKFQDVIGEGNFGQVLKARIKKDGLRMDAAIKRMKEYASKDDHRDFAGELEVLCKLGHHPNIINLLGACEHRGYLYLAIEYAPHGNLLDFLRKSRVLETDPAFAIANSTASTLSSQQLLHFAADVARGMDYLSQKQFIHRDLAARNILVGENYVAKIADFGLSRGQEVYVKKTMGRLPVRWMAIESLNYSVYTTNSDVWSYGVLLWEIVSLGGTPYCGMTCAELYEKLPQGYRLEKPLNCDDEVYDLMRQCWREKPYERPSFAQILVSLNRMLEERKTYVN

Compound	IC50 [1] [nM]	IC50 [2] [nM]	IC50 (GST-VEGFR2) [nM]	IC50 [3] [nM]	IC50 (Recombinant GST-Tie2) [nM]
CNS(=O)(=O)c1cccc(-c2oc3ncnc(N)c3c2-c2ccc(-c3ccccc3)cc2)c1 [Example 200, 4-Amino-3-(4-biphenyl)-2-(3-(N-methylsulfonyl)phenyl)furo[2,3-d]pyrimidine]	100 to 1000	100 to 1000	< 100	1000 to 10000	
Nc1ncnc2scc(-c3ccc(NC(=O)Nc4cc(C(F)(F)F)ccc4F)cc3)c12 [Example 276, 4-Amino-3-(4-((2-fluoro-5-(trifluoromethyl)phenyl)aminocarbonylamino)phenyl)thieno[2,3-d]pyrimidine]					1.8
